ΔTm data for 15 compounds are collected here from paper PMC4780864, “Family-wide Structural Analysis of Human Numb-Associated Protein Kinases” (Structure(London, England:1993), 2016).

Holding throughout (experiment): biochemical
The target in one assay is T1, BIKE (Homo sapiens, UniProt Q9NSY1).
T1 construct: gene BMP2K; catalytic domain-containing construct
Also on record: Thermal shift assay (DSF, SYPRO Orange), 2 uM kinase domain, mean delta Tm of triplicates versus DMSO. The settings on record: read-out: BIKE. Here is the method:
(§1) All measurements were performed in triplicate and mean values were reported for all compounds (Table S1). […] However, NAKs are often omitted from selectivity panels, including commercial screens.

In a further assay the target is T2, GAK (Homo sapiens, UniProt O14976).
T2 construct: catalytic domain-containing construct
T2 sequence (O14976 1-1311): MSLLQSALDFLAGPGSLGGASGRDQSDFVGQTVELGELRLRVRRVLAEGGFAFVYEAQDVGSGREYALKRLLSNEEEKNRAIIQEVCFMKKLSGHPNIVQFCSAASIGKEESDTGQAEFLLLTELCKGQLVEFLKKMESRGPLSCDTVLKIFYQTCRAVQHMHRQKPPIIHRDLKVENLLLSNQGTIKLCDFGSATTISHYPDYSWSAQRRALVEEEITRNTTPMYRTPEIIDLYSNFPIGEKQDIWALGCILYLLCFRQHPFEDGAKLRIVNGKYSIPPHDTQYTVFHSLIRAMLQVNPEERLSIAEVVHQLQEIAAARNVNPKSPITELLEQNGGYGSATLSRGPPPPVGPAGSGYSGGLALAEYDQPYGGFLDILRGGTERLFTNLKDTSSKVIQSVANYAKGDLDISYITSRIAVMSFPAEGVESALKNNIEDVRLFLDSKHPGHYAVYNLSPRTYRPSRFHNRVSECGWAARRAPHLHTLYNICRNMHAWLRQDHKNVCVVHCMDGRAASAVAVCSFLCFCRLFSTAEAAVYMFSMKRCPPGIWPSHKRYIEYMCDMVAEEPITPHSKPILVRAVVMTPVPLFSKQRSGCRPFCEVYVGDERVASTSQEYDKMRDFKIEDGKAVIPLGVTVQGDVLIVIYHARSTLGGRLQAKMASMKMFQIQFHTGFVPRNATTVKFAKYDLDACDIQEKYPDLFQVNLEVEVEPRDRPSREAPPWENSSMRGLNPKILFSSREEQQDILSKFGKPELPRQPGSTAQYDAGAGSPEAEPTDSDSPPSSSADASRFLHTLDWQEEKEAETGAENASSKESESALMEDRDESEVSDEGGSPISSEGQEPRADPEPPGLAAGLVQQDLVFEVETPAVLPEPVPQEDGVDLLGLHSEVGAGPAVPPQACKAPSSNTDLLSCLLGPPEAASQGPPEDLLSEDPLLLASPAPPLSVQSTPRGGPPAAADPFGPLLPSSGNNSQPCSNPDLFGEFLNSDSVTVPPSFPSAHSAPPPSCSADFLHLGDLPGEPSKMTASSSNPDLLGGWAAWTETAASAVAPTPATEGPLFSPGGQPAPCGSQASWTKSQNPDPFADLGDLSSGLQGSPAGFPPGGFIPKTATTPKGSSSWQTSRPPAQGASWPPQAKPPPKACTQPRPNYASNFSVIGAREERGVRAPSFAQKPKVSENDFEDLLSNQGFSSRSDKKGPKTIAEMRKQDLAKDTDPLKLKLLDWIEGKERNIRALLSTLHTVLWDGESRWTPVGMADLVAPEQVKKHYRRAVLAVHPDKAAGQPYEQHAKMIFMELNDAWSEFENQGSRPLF
The arrangement: Thermal shift assay (DSF, SYPRO Orange), 2 uM kinase domain, mean delta Tm of triplicates versus DMSO. As to conditions: read-out: GAK. The protocol:
as §1

In the next assay the target is T3, MPSK1 (Homo sapiens, UniProt O75716).
T3 construct: gene STK16; catalytic domain-containing construct
Also on record: Thermal shift assay (DSF, SYPRO Orange), 2 uM kinase domain, mean delta Tm of triplicates versus DMSO. The settings on record: read-out: MPSK1. The protocol: as §1

Another assay has as its target AAK1 (Homo sapiens, UniProt Q2M2I8). Also on record: kinase domain; Thermal shift assay (DSF, SYPRO Orange), 2 uM kinase domain, mean delta Tm of triplicates versus DMSO. As to conditions: read-out: AAK1. The protocol:
as §1

T3 sequence (O75716 whole entry, the tested form may be a part): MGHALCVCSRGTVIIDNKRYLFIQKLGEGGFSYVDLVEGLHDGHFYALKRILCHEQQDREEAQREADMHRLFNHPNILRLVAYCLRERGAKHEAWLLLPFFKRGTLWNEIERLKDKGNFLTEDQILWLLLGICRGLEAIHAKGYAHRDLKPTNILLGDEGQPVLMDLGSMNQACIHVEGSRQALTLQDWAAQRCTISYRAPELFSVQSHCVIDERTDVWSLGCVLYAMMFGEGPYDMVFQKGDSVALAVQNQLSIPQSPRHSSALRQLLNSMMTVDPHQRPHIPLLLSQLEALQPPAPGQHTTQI
AAK1, sequence (Q2M2I8 27-365 limits assumed): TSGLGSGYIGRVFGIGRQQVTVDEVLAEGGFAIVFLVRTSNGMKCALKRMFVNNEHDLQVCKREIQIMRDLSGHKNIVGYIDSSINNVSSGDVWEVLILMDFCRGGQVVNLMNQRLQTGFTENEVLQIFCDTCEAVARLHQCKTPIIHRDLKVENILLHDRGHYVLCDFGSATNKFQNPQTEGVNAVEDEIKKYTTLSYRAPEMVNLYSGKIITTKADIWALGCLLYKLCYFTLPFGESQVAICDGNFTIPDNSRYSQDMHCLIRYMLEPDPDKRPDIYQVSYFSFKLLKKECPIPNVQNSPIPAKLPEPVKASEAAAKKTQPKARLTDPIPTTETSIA
T1 sequence (Q9NSY1 whole entry, the tested form may be a part): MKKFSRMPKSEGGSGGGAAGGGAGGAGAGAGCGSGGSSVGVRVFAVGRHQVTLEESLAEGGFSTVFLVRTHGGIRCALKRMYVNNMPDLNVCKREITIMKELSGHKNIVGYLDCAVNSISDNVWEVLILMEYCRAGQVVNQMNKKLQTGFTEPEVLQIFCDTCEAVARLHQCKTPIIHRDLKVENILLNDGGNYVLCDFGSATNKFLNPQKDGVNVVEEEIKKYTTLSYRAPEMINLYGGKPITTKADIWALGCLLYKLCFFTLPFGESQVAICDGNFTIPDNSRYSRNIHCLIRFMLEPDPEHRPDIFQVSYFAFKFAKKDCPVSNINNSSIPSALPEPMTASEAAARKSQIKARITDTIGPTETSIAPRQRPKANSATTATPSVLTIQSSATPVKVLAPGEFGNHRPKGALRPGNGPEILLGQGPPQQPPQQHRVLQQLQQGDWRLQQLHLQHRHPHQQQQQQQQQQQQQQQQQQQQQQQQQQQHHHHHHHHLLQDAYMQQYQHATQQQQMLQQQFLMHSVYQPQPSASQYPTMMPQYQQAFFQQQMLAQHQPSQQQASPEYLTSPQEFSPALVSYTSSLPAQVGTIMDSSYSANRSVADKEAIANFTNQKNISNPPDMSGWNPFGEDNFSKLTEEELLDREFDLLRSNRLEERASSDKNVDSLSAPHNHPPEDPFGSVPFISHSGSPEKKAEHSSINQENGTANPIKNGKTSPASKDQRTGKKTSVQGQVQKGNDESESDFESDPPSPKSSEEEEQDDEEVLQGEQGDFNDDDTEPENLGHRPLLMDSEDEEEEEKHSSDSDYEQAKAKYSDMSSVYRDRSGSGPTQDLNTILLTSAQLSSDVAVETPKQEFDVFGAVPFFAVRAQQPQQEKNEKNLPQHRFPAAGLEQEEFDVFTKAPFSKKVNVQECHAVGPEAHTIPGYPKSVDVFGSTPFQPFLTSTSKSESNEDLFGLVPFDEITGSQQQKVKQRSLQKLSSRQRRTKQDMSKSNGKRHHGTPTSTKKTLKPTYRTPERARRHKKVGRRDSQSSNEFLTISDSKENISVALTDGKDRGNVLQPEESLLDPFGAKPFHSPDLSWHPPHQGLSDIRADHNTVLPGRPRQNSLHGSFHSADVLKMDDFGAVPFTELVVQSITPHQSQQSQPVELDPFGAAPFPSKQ

`COc1cc(O)c2c(c1)/C=C/C[C@H](O)[C@H](O)C(=O)/C=C\C[C@H](C)OC2=O` [(5Z)-7-oxozeaenol, (3S,5Z,8S,9S,11E)-3,4,9,10-tetrahydro-8,9,16-trihydroxy-14-methoxy-3-methyl-1H-2-benzoxacyclotetradecin-1,7(8H)-dione]: the ΔTm at 12.5 µM at BIKE came out at 14 °C; at GAK it was 16.7 °C; on MPSK1, 1.09 °C; at AAK1, 11.4 °C.
On to `COc1cc(N2CCC(N3CCN(C)CC3)CC2)ccc1Nc1ncc(Cl)c(Nc2ccccc2P(C)(C)=O)n1` [AP26113], for which the ΔTm at 12.5 µM on BIKE turned out to be 8.42 °C; on GAK it was 9.03 °C; on MPSK1, 2.75 °C; at AAK1, 7.77 °C.
For `COc1cc(N2CCC(N3CCN(C)CC3)CC2)ccc1Nc1ncnc(Nc2ccccc2S(=O)(=O)C(C)C)n1` [ASP3026] the same measures were 2.92 °C, 3.17 °C, 1.08 °C and 4.23 °C.
For `O=C(Nc1c[nH]nc1-c1nc2ccc(CN3CCOCC3)cc2[nH]1)NC1CC1` [AT9283], the ΔTm at 12.5 µM at BIKE worked out at 15.6 °C; on GAK, 4.52 °C; on MPSK1, 9.49 °C; on AAK1 it was 12.1 °C.
On to `CC(C)Oc1cc(Nc2nc(N[C@@H](C)c3ccc(F)cn3)ncc2Cl)n[nH]1` [AZ23], for which the ΔTm at 12.5 µM on BIKE was found to be 3.37 °C; at GAK, 3.09 °C; at MPSK1 it was 3.4 °C; on AAK1, 1.65 °C.
The corresponding values for `COc1cc(OC2CCN(C)CC2)ccc1Nc1ncc2c(n1)n(C1CCCC1)c(=O)n2C` [AZ3146] are 6.16 °C, 6.52 °C, 4.12 °C and 5.37 °C.
As to `CCN(CCO)CCCOc1ccc2c(Nc3cc(CC(=O)Nc4cccc(F)c4)[nH]n3)ncnc2c1` [AZD1152-HQPA], the ΔTm at 12.5 µM on BIKE was 2.02 °C; at GAK it was -0.54 °C; at MPSK1 it was 0.953 °C.
On to `Cc1cc(Nc2nc(N[C@@H](C)c3ncc(F)cn3)ncc2Cl)[nH]n1` [AZD1480], for which the ΔTm at 12.5 µM was 6.41 °C at BIKE, 0.667 °C on GAK, 5.04 °C on MPSK1 and 4.44 °C at AAK1.
For the compound `CNC(=O)c1cccc(-c2ccc3c(N4CCOC[C@@H]4C)nc(N4CCOC[C@@H]4C)nc3n2)c1` [AZD2014], the ΔTm at 12.5 µM at BIKE is 0.477 °C; at GAK it was -0.433 °C; on MPSK1, 1.12 °C; on AAK1 it was 0.373 °C.
For `COc1cc(CCc2cc(NC(=O)c3ccc(N4C[C@@H](C)N[C@@H](C)C4)cc3)n[nH]2)cc(OC)c1` [AZD4547] the same measures were 5.45 °C, -0.197 °C, 6.5 °C and 3.26 °C.
For `COc1ccc(-c2ccc3c(N4CCOC[C@@H]4C)nc(N4CCOC[C@@H]4C)nc3n2)cc1CO` [AZD8055], the ΔTm at 12.5 µM was 0.12 °C on BIKE, -0.753 °C on GAK, 0.947 °C on MPSK1 and 0.04 °C on AAK1.
`Cc1cc(C(=O)NOCCO)c(Nc2ccc(I)cc2F)n(C)c1=O` [AZD8330]: the ΔTm at 12.5 µM at BIKE is 0.227 °C; at GAK it was -0.347 °C; on MPSK1, 0.463 °C; on AAK1, 0.187 °C.
`CN(C)C/C=C/C(=O)Nc1cc2c(Nc3ccc(F)c(Cl)c3)ncnc2cc1O[C@H]1CCOC1` [Afatinib]: the ΔTm at 12.5 µM came to 1.95 °C at BIKE, 3.38 °C at GAK, 0.897 °C at MPSK1 and 1.31 °C on AAK1.
With `CC[C@@H]1C(=O)N(C)c2cnc(Nc3ccc(C(=O)NC4CCN(C)CC4)cc3OC)nc2N1C1CCCC1` [BI 2536], the ΔTm at 12.5 µM at GAK was 4.13 °C.
For the compound `CS(=O)(=O)N1CCN(Cc2cc3nc(-c4cccc5[nH]ncc45)nc(N4CCOCC4)c3s2)CC1` [Pictilisib], the ΔTm at 12.5 µM at BIKE was 4.67 °C; at MPSK1 it was 5.92 °C; on AAK1, 2.3 °C.
